From patent US20250108099A1, “Ovomucoid for use in a method of managing blood coagulation” (Solution Shop AG, priority 2022, published 2025)

How the values were obtained:
Assay type in all cases: biochemical
[1] = biological target: T1, plasmin (Homo sapiens, UniProt P00747); experiment: Plasmin inhibition in buffered plasmin solution with chromogenic substrate S-2251 (Example 2); details: 37° C.
T1 construct: a buffered plasmin solution was used
Method: In order to analyse plasmin inhibition a buffered plasmin solution was used. The solution was incubated with duck egg ovomucoid or cyklocapron as a control. The solutions were incubated at 37° C. and the chromogenic plasmin substrate S-2251 was added and plasmin activity was measured.

[2] = system: Thrombin generation; experiment: Thrombin generation (calibrated automated thrombogram) in normal non-defibrinated plasma, presence of endogenous fibrinogen; details: for effect on extrinsic-thrombin generation: extrinsic (5 pM TF), ovomucoid/Trasylol 50-350 U/ml, Cyklokapron 1-8 mg; for effect on thrombin generation / coagulation system: low TF concentration (0.5 pM)
From the text: (§1) This pilot bioequivalence study aims at investigating the effect of duck egg ovomucoid on the clotting system and assessed its activity against the known anti-thrombolytic agents (Trasylol® “aprotinin” and Cyklokapron” “transamic acid”) by means of the calibrated automated thrombogram (CAT). The CAT method is a functional sensitive assay which detects any hyper- or hypocoagulability in the clotting system, disorders in platelet function and follows up therapy with anti-haemophilia supplements, anticoagulants and antithrombotics.
(§2) An optimal concentration of procoagulant phospholipids was used (4 μM). Two concentrations of tissue factor (TF) were added, 5 pM to study the classical extrinsic pathway and 0.5 pM to explore a pathway in which also the antihaemophilic factors (Factor VIII and IX) play a role.
Normally fibrin (-ogen) is present during thrombin generation, therefore the above experiments were carried out in normal non-defibrinated plasma. Extrinsic-thrombin generation was conducted in normal plasma spiked with increasing amounts of duck egg ovomucoid (50-350 U/ml) and compared to Trasylol (50-350 U/ml) and to Cyklokapron (1-8 mg).

[3] = system: Thrombin generation; experiment: Thrombin generation (calibrated automated thrombogram) in defibrinated normal pooled plasma, absence of fibrinogen; details: 0.5 pM TF, ovomucoid/Trasylol 50-350 U/ml, Cyklokapron 1-8 mg/ml
From the text: as §1
In a fibrinolytic patient fibrin is unstable.
as §2

T1 sequence (P00747 97-580 limits assumed): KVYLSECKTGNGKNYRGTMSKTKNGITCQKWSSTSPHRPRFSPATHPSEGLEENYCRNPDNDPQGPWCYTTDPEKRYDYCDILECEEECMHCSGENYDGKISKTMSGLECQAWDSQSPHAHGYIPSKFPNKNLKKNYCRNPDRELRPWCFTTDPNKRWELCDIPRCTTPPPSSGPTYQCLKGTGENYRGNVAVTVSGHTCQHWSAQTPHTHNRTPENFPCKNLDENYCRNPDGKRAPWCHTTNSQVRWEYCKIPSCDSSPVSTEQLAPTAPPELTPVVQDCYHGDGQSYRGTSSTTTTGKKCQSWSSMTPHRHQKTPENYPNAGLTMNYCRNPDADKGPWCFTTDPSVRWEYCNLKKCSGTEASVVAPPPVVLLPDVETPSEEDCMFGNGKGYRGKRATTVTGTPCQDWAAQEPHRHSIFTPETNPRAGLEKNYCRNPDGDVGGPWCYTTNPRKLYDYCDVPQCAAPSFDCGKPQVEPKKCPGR
T1 sequence (P00747 581-810 limits assumed): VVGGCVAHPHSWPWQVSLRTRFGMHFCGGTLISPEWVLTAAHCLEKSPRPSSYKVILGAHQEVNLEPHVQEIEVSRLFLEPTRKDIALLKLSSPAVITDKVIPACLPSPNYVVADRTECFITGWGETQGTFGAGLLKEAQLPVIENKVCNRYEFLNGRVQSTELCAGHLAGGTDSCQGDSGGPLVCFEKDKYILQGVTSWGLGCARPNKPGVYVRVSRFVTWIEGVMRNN

Row | Compound | inhibitory effect on plasmin [1] | effect on extrinsic-thrombin generation [2] | effect on thrombin generation / coagulation system [2] | effect on thrombin generation [3]
1 | NC[C@H]1CC[C@H](C(=O)O)CC1 [Cyklokapron, transamic acid] | inhibitory effect on plasmin | hardly any activity | procoagulant | increased the thrombin generation in a dose-dependent manner
2 | aprotinin [Trasylol] |  | hardly any activity | dose-dependently anticoagulant | inhibited thrombin generation dose-dependently
